Data: ChEMBL document CHEMBL4371076 (J Med Chem, 2019)

Legend:
[1] = target: Sodium channel protein type 5 subunit alpha (Homo sapiens, UniProt Q14524); assay: Inhibition of human Nav1.5 expressed in HEK293 cells after 600 secs at -50 mV holding potential by ion works barracuda population patch clamp method; format: cell-based
[2] = target: T1, Sodium channel protein type 9 subunit alpha (Homo sapiens, UniProt Q15858); assay: Inhibition of human Nav1.7 expressed in HEK293 cells after 600 secs at -60 mV holding potential by ion works barracuda population patch clamp method; format: cell-based
[3] = target: T2, Cytochrome P450 2C9 (Homo sapiens, UniProt P11712); assay: Inhibition of CYP2C9 in human liver microsomes; format: ADME; conditions: human, microsomes
[4] = Permeability of the compound at pH 5.5 by PAMPA; format: ADME; conditions: read-out: permeability
[5] = target: T3, Cytochrome P450 2C19 (Homo sapiens, UniProt P33261); assay: Time-dependant inhibition of CYP2C19 in human liver microsomes; format: ADME
[6] = target: T1, Sodium channel protein type 9 subunit alpha; assay: Inhibition of recombinant human Nav1.7 expressed in HEK293 cells at -70 mV holding potential by patch clamp electrophysiology method; format: cell-based
[7] = target: T4, Cytochrome P450 2B6 (Homo sapiens, UniProt P20813); assay: Inhibition of CYP2B6 in human liver microsomes; format: ADME; conditions: human, microsomes
T4 sequence (P20813 whole entry): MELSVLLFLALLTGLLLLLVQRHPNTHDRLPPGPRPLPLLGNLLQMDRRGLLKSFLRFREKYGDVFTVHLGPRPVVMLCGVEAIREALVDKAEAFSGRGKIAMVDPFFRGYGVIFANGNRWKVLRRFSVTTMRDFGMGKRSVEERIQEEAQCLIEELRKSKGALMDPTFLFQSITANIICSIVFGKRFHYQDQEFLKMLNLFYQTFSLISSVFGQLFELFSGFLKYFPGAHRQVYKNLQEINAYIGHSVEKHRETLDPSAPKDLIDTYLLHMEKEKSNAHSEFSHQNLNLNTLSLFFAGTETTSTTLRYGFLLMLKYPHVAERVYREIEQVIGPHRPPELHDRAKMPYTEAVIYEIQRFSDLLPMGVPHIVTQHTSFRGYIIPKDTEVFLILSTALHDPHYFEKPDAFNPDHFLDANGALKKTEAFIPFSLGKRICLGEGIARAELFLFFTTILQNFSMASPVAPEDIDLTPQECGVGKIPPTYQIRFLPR

[8] = target: T5, Cytochrome P450 3A4 (Homo sapiens, UniProt P08684); assay: Time-dependant inhibition of CYP3A4 in human liver microsomes; format: ADME
[9] = Permeability of the compound at pH 7.4 by PAMPA; format: ADME; conditions: read-out: permeability
[10] = Efflux ratio of permeability in human Caco2 cells; format: ADME, cell-based; conditions: Caco-2
[11] = target: T6, Cytochrome P450 2D6 (Homo sapiens, UniProt P10635); assay: Inhibition of CYP2D6 in human liver microsomes; format: ADME; conditions: human, microsomes
[12] = target: T7, Cytochrome P450 2C8 (Homo sapiens, UniProt P10632); assay: Inhibition of CYP2C8 in human liver microsomes; format: ADME; conditions: human, microsomes
T7 sequence (P10632 whole entry): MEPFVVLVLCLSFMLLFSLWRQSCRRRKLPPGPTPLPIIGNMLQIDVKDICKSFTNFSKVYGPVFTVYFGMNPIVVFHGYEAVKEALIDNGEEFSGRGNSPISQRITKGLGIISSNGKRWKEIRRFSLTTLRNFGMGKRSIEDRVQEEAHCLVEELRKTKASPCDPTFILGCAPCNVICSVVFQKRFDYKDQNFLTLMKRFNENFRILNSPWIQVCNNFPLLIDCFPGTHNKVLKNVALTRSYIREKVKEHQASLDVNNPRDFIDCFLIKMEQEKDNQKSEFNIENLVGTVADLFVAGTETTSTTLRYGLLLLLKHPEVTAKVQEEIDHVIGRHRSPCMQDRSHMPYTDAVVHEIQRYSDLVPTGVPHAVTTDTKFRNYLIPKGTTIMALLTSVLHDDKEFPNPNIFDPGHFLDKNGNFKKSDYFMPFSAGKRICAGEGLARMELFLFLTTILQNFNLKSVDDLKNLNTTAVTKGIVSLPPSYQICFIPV

[13] = target: T5, Cytochrome P450 3A4; assay: Inhibition of CYP3A4 in human liver microsomes; format: ADME; conditions: human, microsomes
[14] = Fraction unbound in mouse plasma; format: ADME, cell-free
[15] = target: T4, Cytochrome P450 2B6; assay: Time-dependant inhibition of CYP2B6 in human liver microsomes; format: ADME
[16] = Metabolic stability in mouse liver microsomes assessed as parent compound remaining at 0.5 uM after 10 mins; format: ADME, Microsome; conditions: read-out: Stability
[17] = Permeability from basolateral to apical side in human Caco2 cells; format: ADME, cell-based; conditions: Caco-2, read-out: permeability
[18] = Metabolic stability in human liver microsomes assessed as parent compound remaining at 0.5 uM after 10 mins; format: ADME, Microsome; conditions: read-out: Stability
[19] = Permeability from apical to basolateral side in human Caco2 cells; format: ADME, cell-based; conditions: Caco-2, read-out: permeability
[20] = target: T7, Cytochrome P450 2C8; assay: Time-dependant inhibition of CYP2C8 in human liver microsomes; format: ADME
[21] = target: T2, Cytochrome P450 2C9; assay: Time-dependant inhibition of CYP2C9 in human liver microsomes; format: ADME
[22] = Metabolic stability in rat liver microsomes assessed as parent compound remaining at 0.5 uM after 10 mins; format: ADME, Microsome; conditions: read-out: Stability
[23] = target: T3, Cytochrome P450 2C19; assay: Inhibition of CYP2C19 in human liver microsomes; format: ADME; conditions: human, microsomes
[24] = target: T6, Cytochrome P450 2D6; assay: Time-dependant inhibition of CYP2D6 in human liver microsomes; format: ADME

Sequence of Sodium channel protein type 5 subunit alpha (Q14524 whole entry): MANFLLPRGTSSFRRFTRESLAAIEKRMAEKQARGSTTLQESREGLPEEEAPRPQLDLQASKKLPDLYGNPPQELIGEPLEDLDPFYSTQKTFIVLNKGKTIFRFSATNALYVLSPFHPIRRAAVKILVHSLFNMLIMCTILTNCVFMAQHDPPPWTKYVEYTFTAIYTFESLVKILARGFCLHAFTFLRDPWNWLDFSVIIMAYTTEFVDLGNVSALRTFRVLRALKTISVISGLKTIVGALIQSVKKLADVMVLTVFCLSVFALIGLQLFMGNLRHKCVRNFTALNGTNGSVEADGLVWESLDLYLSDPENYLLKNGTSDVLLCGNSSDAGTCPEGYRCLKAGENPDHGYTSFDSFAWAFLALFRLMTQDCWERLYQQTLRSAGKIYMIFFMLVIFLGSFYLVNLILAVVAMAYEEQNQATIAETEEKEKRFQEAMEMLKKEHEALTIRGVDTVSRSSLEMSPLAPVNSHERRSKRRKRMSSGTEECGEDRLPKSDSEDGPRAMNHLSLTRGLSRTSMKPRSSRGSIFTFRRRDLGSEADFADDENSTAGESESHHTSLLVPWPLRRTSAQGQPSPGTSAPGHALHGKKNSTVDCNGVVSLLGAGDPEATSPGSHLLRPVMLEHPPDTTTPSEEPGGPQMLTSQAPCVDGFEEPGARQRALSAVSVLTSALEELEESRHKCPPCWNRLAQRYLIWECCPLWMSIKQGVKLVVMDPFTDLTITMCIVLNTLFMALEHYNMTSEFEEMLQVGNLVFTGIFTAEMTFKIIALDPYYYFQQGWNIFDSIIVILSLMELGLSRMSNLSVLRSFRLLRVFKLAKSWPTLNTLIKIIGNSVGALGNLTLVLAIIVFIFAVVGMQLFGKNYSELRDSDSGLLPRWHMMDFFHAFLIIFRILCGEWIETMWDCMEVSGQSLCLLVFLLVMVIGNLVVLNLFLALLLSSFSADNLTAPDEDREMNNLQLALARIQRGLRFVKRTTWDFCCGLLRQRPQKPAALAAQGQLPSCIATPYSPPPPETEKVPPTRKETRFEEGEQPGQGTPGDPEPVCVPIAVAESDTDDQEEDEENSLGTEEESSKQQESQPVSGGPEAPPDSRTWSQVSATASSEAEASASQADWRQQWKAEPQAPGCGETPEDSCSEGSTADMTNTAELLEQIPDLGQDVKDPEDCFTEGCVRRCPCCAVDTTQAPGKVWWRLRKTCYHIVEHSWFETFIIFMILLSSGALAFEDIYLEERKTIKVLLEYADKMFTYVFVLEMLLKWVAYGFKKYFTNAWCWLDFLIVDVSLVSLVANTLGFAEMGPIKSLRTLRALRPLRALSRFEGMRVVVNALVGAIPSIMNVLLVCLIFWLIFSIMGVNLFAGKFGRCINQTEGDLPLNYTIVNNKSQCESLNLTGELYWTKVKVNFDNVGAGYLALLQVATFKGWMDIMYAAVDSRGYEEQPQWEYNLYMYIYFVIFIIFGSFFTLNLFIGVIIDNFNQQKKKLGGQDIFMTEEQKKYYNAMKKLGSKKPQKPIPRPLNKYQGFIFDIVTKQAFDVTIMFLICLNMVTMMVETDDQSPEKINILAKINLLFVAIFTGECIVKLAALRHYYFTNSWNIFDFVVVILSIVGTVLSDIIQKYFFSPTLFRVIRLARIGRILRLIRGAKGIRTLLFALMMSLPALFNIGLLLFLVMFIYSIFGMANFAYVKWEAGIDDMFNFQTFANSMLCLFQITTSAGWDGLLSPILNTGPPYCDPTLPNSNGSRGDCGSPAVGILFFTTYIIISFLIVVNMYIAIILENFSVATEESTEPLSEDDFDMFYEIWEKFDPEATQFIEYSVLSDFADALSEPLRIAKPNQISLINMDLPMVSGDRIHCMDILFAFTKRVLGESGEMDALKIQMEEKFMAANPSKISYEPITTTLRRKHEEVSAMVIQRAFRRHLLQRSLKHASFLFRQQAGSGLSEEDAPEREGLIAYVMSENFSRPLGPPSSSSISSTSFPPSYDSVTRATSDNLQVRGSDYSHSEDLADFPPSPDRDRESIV
T1 sequence (Q15858 whole entry): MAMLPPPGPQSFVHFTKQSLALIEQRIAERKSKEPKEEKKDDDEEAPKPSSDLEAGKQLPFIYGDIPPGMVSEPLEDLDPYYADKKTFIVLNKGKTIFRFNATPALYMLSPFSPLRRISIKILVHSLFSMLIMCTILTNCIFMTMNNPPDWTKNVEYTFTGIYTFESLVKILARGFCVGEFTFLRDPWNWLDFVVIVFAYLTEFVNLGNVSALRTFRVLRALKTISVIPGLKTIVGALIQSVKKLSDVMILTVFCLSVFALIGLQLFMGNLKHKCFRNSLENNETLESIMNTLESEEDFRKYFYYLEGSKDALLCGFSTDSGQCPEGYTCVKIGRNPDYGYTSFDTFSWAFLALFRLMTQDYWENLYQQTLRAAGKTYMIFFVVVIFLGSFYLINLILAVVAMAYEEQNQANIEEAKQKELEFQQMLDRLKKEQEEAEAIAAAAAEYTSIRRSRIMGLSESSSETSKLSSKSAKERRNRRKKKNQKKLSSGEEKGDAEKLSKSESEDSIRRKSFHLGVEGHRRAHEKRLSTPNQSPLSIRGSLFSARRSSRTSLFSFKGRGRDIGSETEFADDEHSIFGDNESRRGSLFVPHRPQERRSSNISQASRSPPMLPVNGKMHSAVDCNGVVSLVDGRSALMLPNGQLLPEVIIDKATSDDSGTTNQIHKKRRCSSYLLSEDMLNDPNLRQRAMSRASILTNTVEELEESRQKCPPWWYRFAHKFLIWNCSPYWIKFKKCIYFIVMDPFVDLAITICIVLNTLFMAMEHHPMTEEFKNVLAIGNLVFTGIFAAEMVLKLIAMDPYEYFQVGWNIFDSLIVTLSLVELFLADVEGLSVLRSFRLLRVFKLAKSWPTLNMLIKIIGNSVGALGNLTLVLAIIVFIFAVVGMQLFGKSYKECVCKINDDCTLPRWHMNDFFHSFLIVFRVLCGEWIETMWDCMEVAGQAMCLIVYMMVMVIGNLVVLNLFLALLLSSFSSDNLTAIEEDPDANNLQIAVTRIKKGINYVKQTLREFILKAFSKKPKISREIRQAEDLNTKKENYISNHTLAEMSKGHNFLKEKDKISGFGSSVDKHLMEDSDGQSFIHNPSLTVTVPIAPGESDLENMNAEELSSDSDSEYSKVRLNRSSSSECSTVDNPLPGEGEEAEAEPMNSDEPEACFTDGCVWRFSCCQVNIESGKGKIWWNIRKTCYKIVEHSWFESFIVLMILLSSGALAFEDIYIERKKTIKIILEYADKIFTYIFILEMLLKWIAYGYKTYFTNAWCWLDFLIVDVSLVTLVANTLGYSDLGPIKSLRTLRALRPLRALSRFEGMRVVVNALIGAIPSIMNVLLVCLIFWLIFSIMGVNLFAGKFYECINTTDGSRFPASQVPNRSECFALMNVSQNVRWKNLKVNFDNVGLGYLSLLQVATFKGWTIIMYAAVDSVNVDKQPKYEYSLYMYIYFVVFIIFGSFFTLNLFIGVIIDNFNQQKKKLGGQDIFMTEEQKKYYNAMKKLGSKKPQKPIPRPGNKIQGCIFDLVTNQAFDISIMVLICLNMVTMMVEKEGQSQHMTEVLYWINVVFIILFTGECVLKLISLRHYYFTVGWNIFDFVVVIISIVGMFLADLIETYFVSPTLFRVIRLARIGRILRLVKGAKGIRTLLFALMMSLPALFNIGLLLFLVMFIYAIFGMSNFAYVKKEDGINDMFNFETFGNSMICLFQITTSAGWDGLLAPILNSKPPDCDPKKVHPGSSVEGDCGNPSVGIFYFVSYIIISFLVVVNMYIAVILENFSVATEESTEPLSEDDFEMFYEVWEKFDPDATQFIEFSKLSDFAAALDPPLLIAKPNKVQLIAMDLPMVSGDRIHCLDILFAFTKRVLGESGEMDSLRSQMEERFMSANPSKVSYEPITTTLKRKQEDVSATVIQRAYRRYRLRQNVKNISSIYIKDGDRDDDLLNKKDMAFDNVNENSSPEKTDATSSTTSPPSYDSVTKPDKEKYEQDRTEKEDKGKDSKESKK
T2 sequence (P11712 whole entry): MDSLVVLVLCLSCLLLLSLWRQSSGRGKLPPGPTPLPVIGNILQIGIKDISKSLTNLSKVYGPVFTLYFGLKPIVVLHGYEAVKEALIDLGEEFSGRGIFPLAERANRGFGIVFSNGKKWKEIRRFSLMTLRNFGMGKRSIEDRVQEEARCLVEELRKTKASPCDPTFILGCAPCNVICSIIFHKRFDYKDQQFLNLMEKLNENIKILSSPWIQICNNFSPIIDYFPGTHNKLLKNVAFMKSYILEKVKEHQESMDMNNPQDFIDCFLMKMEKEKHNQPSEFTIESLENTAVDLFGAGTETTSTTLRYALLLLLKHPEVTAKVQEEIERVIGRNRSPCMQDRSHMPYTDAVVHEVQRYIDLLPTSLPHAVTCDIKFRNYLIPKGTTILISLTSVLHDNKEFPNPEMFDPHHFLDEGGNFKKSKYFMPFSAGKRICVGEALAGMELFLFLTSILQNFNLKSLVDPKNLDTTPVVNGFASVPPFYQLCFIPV
T6 sequence (P10635 whole entry): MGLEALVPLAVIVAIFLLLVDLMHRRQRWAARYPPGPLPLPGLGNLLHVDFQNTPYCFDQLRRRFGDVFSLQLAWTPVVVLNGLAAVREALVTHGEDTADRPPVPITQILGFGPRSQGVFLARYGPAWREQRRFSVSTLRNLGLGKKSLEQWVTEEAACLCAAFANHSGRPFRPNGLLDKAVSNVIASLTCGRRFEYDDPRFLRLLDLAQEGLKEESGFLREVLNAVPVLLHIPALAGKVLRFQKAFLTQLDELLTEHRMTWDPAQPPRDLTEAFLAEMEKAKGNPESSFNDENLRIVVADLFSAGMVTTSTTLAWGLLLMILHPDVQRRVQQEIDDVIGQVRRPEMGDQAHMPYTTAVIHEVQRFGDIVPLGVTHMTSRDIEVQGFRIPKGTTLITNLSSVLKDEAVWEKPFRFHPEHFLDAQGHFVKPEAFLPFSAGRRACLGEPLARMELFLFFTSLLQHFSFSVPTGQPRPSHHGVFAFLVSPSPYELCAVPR

Work on Cn1cc(-c2cnc(OCC(F)(F)F)c(Cl)c2)c2ccc(C(=O)NS(C)(=O)=O)cc21 yielded an IC50 [1] of 12 µM and an IC50 [2] of 0.063 µM.

Work on CC(C)COc1ccc(-c2nn(C)c3cc(C(=O)NS(C)(=O)=O)c(F)cc23)cn1 yielded an IC50 [1] greater than 30 µM and an IC50 [2] of 0.17 µM.

In the case of CC(C)COc1ncc(-c2nn(C)c3cc(C(=O)NS(=O)(=O)C4CC4)ccc23)cc1Cl, the IC50 [1] is reported as 5.9 µM and the IC50 [2] is reported as 0.104 µM.

For Cn1cc(-c2cnc(OCC3CC3)c(Cl)c2)c2ccc(C(=O)NS(C)(=O)=O)cc21, the IC50 [2] was 0.123 µM.

With Cn1cc(-c2ccc(OC(F)(F)F)cc2)c2ccc(C(=O)NS(C)(=O)=O)cc21 the IC50 [1] was 16 µM and the IC50 [2] was 0.08 µM.

For CN(C)S(=O)(=O)NC(=O)c1ccc2c(-c3ccc(C(F)(F)F)cc3)cn(C)c2c1, the IC50 [1] was 19 µM and the IC50 [2] was 1.7 µM.

Work on CC(C)COc1ncc(-c2n[nH]c3cc(C(=O)NS(C)(=O)=O)ccc23)cc1Cl yielded an IC50 [2] of 0.28 µM.

CC(C)COc1ccc(-c2cn(C)c3cc(C(=O)NS(C)(=O)=O)ccc23)cc1 gave an IC50 [1] of 18 µM and an IC50 [2] of 0.53 µM.

For Cn1cc(-c2ccc(C(F)(F)F)cc2)c2ccc(C(=O)NS(=O)(=O)c3ccc(F)c(F)c3)cc21, the IC50 [2] was greater than 3 µM.

For COc1cc(-c2cn(C)c3cc(C(=O)NS(=O)(=O)C4CC4)ccc23)cnc1OCC(C)C, the IC50 [1] was greater than 30 µM and the IC50 [2] was 0.085 µM.

Cn1cc(-c2ccc(C(F)(F)F)cc2)c2ccc(C(=O)NS(C)(=O)=O)nc21 gave an IC50 [2] of 3.02 µM.

With CC(C)COc1ncc(-c2cn(C(C)C)c3cc(C(=O)NS(C)(=O)=O)ccc23)cc1Cl the IC50 [1] was 1.7 µM.

Work on Cn1cc(-c2ccccc2)c2ccc(C(=O)NS(C)(=O)=O)cc21 yielded an IC50 [1] greater than 30 µM.

In the case of Cc1ccc(-c2cn(C)c3cc(C(=O)NS(C)(=O)=O)ccc23)cc1, the IC50 [1] is reported as greater than 30 µM.

In the case of Cn1nc(-c2ccc(C(F)(F)F)cc2)c2cc(F)c(C(=O)NS(=O)(=O)C3CC3)cc21, the “inhibition (INH)” value [3] is reported as “Not Active”, the Papp [4] is reported as 59.2 ×10⁻⁶ cm/s and the TDI [5] is reported as “Not Active”. For the same molecule, the IC50 [6] was 0.021 µM, the “inhibition (INH)” value [7] was “Not Active” and the TDI [8] was “Not Active”. For the same molecule, the Papp [9] was 10.2 ×10⁻⁶ cm/s, the efflux ratio [10] was greater than 21 and the “inhibition (INH)” value [11] was “Not Active”. For the same molecule, the “inhibition (INH)” value [12] was “Not Active”, the “inhibition (INH)” value [13] was “Not Active” and the fraction unbound [14] was 0.008. The TDI [15] was “Not Active”, the remaining at 10 min, 0.5 µM [16] was 100% and the Papp B→A [17] was 31.2 ×10⁻⁶ cm/s. It also gave a remaining at 10 min, 0.5 µM [18] of 100%, an IC50 [1] of 6.4 µM and a Papp A→B [19] of less than 1.5 ×10⁻⁶ cm/s. The TDI [20] was “Not Active”, the TDI [21] was “Not Active” and the remaining at 10 min, 0.5 µM [22] was 100%. The “inhibition (INH)” value [23] was “Not Active”, the IC50 [2] was 0.013 µM and the TDI [24] was “Not Active”.

Work on CC(C)COc1ncc(-c2c3ccc(C(=O)NS(=O)(=O)C4CC4)cc3nn2C)cc1Cl yielded an IC50 [2] of 0.19 µM.

Work on CC(C)COc1ccc(-c2cn(C)c3cc(C(=O)NS(C)(=O)=O)ccc23)cn1 yielded an IC50 [1] greater than 30 µM and an IC50 [2] of 0.164 µM.

For COc1cc(-c2cn(C)c3cc(C(=O)NS(C)(=O)=O)ccc23)cnc1OCC(C)C, the IC50 [1] was greater than 30 µM and the IC50 [2] was 0.51 µM.

In the case of CC(C)COc1ccc(-c2nn(C)c3cc(C(=O)NS(=O)(=O)C4CC4)c(F)cc23)cn1, the “inhibition (INH)” value [3] is reported as “Not Active”, the Papp [4] is reported as 76.2 ×10⁻⁶ cm/s and the TDI [5] is reported as “Not Active”. For the same molecule, the IC50 [6] was 0.043 µM, the “inhibition (INH)” value [7] was “Not Active” and the TDI [8] was “Not Active”. The Papp [9] was 10 ×10⁻⁶ cm/s, the “inhibition (INH)” value [11] was “Not Active” and the “inhibition (INH)” value [12] was “Not Active”. For the same molecule, the “inhibition (INH)” value [13] was “Not Active”, the fraction unbound [14] was 0.011 and the TDI [15] was “Not Active”. For the same molecule, the remaining at 10 min, 0.5 µM [16] was 92%, the remaining at 10 min, 0.5 µM [18] was 91% and the IC50 [1] was 11 µM. For the same molecule, the TDI [20] was “Not Active”, the TDI [21] was “Not Active” and the remaining at 10 min, 0.5 µM [22] was 88%. For the same molecule, the “inhibition (INH)” value [23] was “Not Active”, the IC50 [2] was 0.045 µM and the TDI [24] was “Not Active”.

Cn1nc(-c2ccc(C(F)(F)F)cc2)c2ccc(C(=O)NS(C)(=O)=O)cc21 showed an IC50 [1] greater than 30 µM and an IC50 [2] of 0.194 µM.
